# Source: patent publication US4613666A, “Neplanocin A derivatives” (Toyo Jozo Kabushiki Kaisha, priority 1980, dated 1986)
# System: L 5178 Y cells
# Experiment: growth-inhibitory activity on mouse lymphoma L 5178 Y cells (MIC)
# Assay type: cell-based
# Conditions: 5×10^4 /ml, Fischer's medium with 10% bovine serum, 37° C., 22 hours, phenol red color change, read-out: MIC (minimum inhibitory concentration on cell growth)
# Protocol: The growth-inhibitory activities of compound [I] of the present invention on L 5178 Y cells are shown below. (1) Test method:
# A test sample (0.3 ml) dissolved in a medium [bovine serum (10%) in Fischer's medium] is added to a mouse lymphoma L 5178 Y cells suspension (2.7 ml, 5×10^4 /ml cells), and the mixture is incubated at 37° C. for 22 hours. Cell-growth is observed by checking the color change of phenol red in the medium. The minimum inhibitory concentration (MIC) of the substance on cell growth is defined by observing apparent growth inhibition as compared with that of control.
row,SMILES,MIC
1,"Nc1ncnc2c1ncn2[C@@H]1C=C(CO)[C@@H](O)[C@@H]1N [R1=H, R4=NH2, R5=H, R6=H, 2'-(R)-amino-2'-deoxy neplanocin A acetate]",4 µg/mL
2,"Nc1ncnc2c1ncn2[C@@H]1C=C(CO)[C@@H](O)[C@@H]1Br [R1=H, R4=Br, R5=H, R6=H, 2'-(R)-bromo-2'-deoxy neplanocin A]",4 µg/mL
3,"O=C(Nc1ncnc2c1ncn2[C@@H]1C=C(CO)[C@@H](O)[C@@H]1I)c1ccccc1 [R1=COPh, R4=I, R5=H, R6=H, N^6-benzoyl-2'-(R)-iodo-2'-deoxy neplanocin A]",100 µg/mL
4,"CC(=O)OCC1=C[C@@H](n2cnc3c(N)ncnc32)[C@@H](Cl)[C@@H]1OC(C)=O [R1=H, R4=Cl, R5=Ac, R6=Ac, 2'-(R)-chloro-2'-deoxy-3 '-O,5'-O-diacetyl neplanocin A]",100 µg/mL
5,"Nc1ncnc2c1ncn2[C@@H]1C=C(CO)[C@@H](O)[C@@H]1I [R1=H, R4=I, R5=H, R6=H, 2'-(R)-iodo-2'-deoxy neplanocin A]",4 µg/mL
6,"[N-]=[N+]=N[C@H]1[C@H](O)C(CO)=C[C@H]1n1cnc2c(N)ncnc21 [R1=H, R4=N3, R5=H, R6=H, 2'-(R)-azide-2'-deoxyneplanocin A]",100 µg/mL
7,"Nc1ncnc2c1ncn2[C@@H]1C=C(CO)[C@@H](O)[C@@H]1Cl [R1=H, R4=Cl, R5=H, R6=H, 2'-(R)-chloro-2'-deoxy neplanocin A]",20 µg/mL
8,"Nc1ncnc2c1ncn2[C@@H]1C=C(CO)[C@H]2OC(c3ccccc3)O[C@H]21 (some centres unmarked) [2',3'-Obenzylidene neplanocin A, 2',3'-O-benzylidene neplanocin A]",4 µg/mL

# Further lines, results first:
row,MIC,SMILES
1,4 µg/mL,"Nc1ncnc2c1ncn2[C@@H]1C=C(CO)[C@@H](O)C1 [R1=H, R4=H, R5=H, R6=H, 2'-deoxy neplanocin A]"
2,0.8 µg/mL,"CC(=O)OCC1=C[C@@H](n2cnc3c(N)ncnc32)[C@H](OC(C)=O)[C@@H]1OC(C)=O [2',3',5'-Otriacetyl nephlanocin A, 2',3',5'-O-triacetyl neplanocin A]"
3,0.16 µg/mL,"O=C(Nc1ncnc2c1ncn2[C@@H]1C=C(COC(=O)c2ccccc2)[C@@H](O)[C@H]1O)c1ccccc1 [N^6,5'-Odibenzoyl neplanocin A, N^6,5'-O-dibenzoyl neplanocin A]"
4,0.16 µg/mL,"O=C(OCC1=C[C@@H](n2cnc3c(N(C(=O)c4ccccc4)C(=O)c4ccccc4)ncnc32)[C@H](O)[C@@H]1O)c1ccccc1 [N^6,N^6,5'-Otribenzoyl neplanocin A, N^6,N^6 5'-O-tribenzoyl neplanocin A]"

# System: not given
# Experiment: not given
# Conditions: earlier applications cited; cited from earlier work
row,SMILES,antitumor activity
1,Nc1ncnc2c1ncn2[C@@H]1C=C(CO)[C@@H](O)[C@H]1O [Neplanocin A],antitumor activity

# System: plant pathogenic fungi
# Experiment: not given
# Conditions: earlier applications cited; cited from earlier work
row,SMILES,inhibitory action for plant pathogenic fungi
1,Nc1ncnc2c1ncn2[C@@H]1C=C(CO)[C@@H](O)[C@H]1O [Neplanocin A],inhibitory action for plant pathogenic fungi
